Patent US20100113549A1, “PYRROLIDINE COMPOUNDS” (ISIS INNOVATION LTD., priority 2004, published 2010)
Like-named read-outs stand apart in the source and are kept apart here.

Legend:
[1] = target: T1, glucosylceramide synthase (GCS) (Homo sapiens, UniProt Q16739); experiment: Glucosylceramide synthase assay using HL-60 cell microsomes; type: biochemical; conditions: read-out: IC50 as GCS inhibitors
T1 construct: assay was conducted using HL-60 cell microsomes as described in the literature; endogenous in cells; host or cells: HL-60 cell microsomes
T1 sequence (Q16739 1-394): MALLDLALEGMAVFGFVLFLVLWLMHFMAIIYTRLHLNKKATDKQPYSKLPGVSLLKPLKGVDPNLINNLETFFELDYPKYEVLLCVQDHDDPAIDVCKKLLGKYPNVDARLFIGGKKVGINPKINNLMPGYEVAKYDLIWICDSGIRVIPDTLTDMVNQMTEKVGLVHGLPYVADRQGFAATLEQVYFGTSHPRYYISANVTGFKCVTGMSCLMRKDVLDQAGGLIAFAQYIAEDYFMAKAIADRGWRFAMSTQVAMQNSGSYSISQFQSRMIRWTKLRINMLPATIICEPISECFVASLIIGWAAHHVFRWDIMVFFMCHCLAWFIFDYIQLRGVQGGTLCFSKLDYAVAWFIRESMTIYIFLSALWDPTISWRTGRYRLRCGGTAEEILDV
Experimental: Glucosylceramide synthase [UDP-glucose N-acyl-sphingosine glucosyltransferase (EC 2.4.1.80)] assay was conducted using HL-60 cell microsomes as described in the literature.^iv
All inhibitors were screened at a concentration of 100 μM against glycosidases and 50 μM against glucosylceramide synthase; all assays were recorded in duplicate.

[2] = system: bovine diarrhoea virus (BVDV); experiment: BVDV antiviral assay in MDBK cells, plaque assay of secreted virus; type: cell-based; conditions: Bovine viral diarrhea virus isolates and strains; MOI=0.5, MDBK cells; read-out: IC50 against BVDV
Experimental: Madin-Darby bovine kidney cells (MDBK) were grown in DMEM/F12 (purchased from Gibco BRL) supplemented with 10% heat-inactivated horse serum (Gibco BRL). The cytopathic NADL strain of bovine viral diarrhoea virus (BVDV) (kindly provided by Dr. Ruben Donis, University of Nebraska) stock was prepared as previously described.^viii For antiviral activity testing MDBK cells were plated into 24 well plates 24 hours before virus infection. Cells were infected with BVDV at moi=0.5 for 1 hour in 100 μL media with occasional rocking of the plate. The inocula were washed twice with media and regular media were added with 100 μM of the test compound. After 24 hours, the supernatant media were saved. Secreted viruses in the media were titred on new MDBK cells by standard plaque assay. Toxicity of the compounds was determined by examining the tissue culture cells after the 24 hour treatment.

[3] = system: bovine diarrhoea virus (BVDV); conditions: MOI=0.1, literature (ref 16); read-out: IC50 against BVDV; cited from earlier work

For “1-Butyl-2,3-trans-2-(1-pentylcarbamoyl)-3,4-cis-O-isopropylidene-pyrrolidine [compound 10]”, the IC50 [1] was 117 µM.

With `CC(C)(C)CC(C)(C)NC(=O)C1[C@H](O)[C@@H](O)CN1C(=O)c1ccccc1` (stereo partly shown) [9iiA] the IC50 [2] was 25 µM.

In the case of `CCCC(C)NC(=O)C1[C@H](O)[C@@H](O)CN1C(=O)c1cccc(N(C)C)c1` (stereo partly shown) [9viiG], the IC50 [2] is reported as 30 µM.

`CC(C)NC(=O)C1[C@H](O)[C@@H](O)CN1C(=O)c1ccoc1` (stereo partly shown) [9viiiF] showed an IC50 [2] of 30 µM.

For `CCCCN1C[C@H](O)[C@@H](O)[C@H](O)[C@H]1CO` [NB-DNJ], the IC50 [3] is listed as 125 µM.

For `CCCCCCCCCN1C[C@H](O)[C@@H](O)[C@H](O)[C@H]1CO` [NN-DNJ], the IC50 [3] is given as 10 µM.

Molecule `CCCCCNC(=O)C1NCC2OC(C)(C)OC21` (stereo not drawn) [compound 11, 2,3-trans-2-(1-Pentylcarbamoyl)-3,4-cis-O-isopropylidene-pyrrolidine] has an IC50 [1] of 140 µM.
